Like-named read-outs stand apart in the source and are kept apart here.
Legend:
CO [1] = biological target: T1, CO (Rattus norvegicus, UniProt Q63921); assay: Procedure II: CO activity in broken RBL-1 cells (homogenate supernatant); assay type: biochemical; conditions: RBL-1 broken cell supernatant; for IC50: read-out: Proc. II CO IC50; for inhibition at 10 µM: 20 min, @ 10 .quadrature.M, read-out: Proc. II CO % inhibition
T1 construct: the supernatant was saved as the source of enzymes; endogenous in cells; host or cells: RBL-1 (rat basophilic leukemia) cells
T1 sequence (Q63921 27-602): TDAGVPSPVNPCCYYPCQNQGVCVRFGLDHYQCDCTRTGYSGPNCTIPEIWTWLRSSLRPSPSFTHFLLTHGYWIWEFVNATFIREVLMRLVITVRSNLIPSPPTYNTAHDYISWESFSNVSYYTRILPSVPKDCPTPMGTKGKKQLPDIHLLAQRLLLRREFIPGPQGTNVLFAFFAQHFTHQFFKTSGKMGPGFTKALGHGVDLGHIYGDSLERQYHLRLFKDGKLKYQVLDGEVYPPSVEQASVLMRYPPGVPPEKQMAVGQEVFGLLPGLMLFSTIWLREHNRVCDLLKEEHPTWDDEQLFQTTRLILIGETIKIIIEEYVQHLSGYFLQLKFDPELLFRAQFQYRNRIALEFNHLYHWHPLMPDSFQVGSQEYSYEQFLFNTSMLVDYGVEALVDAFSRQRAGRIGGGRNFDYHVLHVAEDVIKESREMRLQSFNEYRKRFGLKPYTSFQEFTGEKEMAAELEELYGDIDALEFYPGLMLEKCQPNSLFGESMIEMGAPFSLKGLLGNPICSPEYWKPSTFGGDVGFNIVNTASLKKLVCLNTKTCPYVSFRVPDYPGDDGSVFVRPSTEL
Method: (§1) Procedure II was used to assess LO and CO activity. Rat basophilic leukemia cells (RBL-1; 5×10^7 viable cells/mL) were disrupted by homogenization on ice (four 20 sec bursts) with a Brinkman polytron. […] The homogenate was then centrifuged at 9,220×g for 48 minutes at 4° C. The pellet was discarded and the supernatant was saved as the source of enzymes. The supernatant was pre-incubated for five minutes at 37° C. in the presence of 2 mM of CaCl2 and compound or vehicle (1% DMSO). The conversion of AA into products by CO and LO was initiated by adding 10 μL (50 μCi) of 1-^14 C-AA to each tube and incubated at 37° C. for 20 minutes. The reaction was stopped by adjusting the pH of each sample to 3 to 3.5 with 2M formic acid. Samples were extracted with three volumes of chloroform to isolate the products of 5-LO formed during the reaction. Fractions were dried under nitrogen, then resuspended in 40 μL of chloroform and spotted onto silica gel HL plates. The plates were developed in A-9 solvent. The dried plates were analyzed using a Bioscan Imaging TLC scanner to determine the percentage of radiolabelled AA converted to 5-HETE (LO product) in each sample. The percentage of inhibition was calculated by:
(§2) [1-(5-HETE test)]/5-HETE control×100=% inhibition
(§3) The IC50 was determined using a curve fit in Cricket Graph (Computer Associated), which provided the equation of the regressed line used in the calculation.

5-LO [2] = biological target: T2, 5-LO (Rattus norvegicus, UniProt P12527); assay: Procedure III: 5-LO (5-HETE) in intact RBL-1 cells; assay type: cell-based; conditions: calcium ionophore A 23187, read-out: Proc. III 5-LO IC50
T2 construct: the supernatant was saved as the source of enzymes; endogenous in cells; host or cells: RBL-1 (rat basophilic leukemia) cells
T2 sequence (P12527 1-673): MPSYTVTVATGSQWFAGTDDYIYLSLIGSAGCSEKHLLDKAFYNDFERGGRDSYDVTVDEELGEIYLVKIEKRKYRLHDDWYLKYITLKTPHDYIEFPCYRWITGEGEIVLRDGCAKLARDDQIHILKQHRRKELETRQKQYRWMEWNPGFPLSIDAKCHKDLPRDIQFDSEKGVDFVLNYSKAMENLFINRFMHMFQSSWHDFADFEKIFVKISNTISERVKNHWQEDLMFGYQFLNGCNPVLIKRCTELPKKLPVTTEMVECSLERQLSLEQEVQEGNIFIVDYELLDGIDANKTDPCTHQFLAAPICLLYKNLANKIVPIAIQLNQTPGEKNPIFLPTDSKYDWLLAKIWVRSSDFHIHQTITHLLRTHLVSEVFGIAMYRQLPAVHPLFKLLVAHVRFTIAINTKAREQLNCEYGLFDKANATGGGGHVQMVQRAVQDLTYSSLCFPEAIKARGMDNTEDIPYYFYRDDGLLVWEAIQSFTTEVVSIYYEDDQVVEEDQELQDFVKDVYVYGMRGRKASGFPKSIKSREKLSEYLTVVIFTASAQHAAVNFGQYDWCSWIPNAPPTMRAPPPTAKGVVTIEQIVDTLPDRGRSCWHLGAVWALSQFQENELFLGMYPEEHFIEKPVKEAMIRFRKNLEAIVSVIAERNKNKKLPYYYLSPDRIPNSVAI
Method: as §3
(§4) In Procedure III, the ability to inhibit 5-LO and CO in intact RBL-1 cells was also evaluated. […] Cells were collected by centrifugation, washed once in HBSS, and resuspended at a concentration of 1×10^5 cells/mL. Cells were incubated in the presence of vehicle or drug then centrifuged at 800×g for 10 minutes at 4° C. The supernatant was removed by aspiration and the cells were resuspended in 0.5 mL of HBSS. […] The conversion of AA to 5-LO products was initiated by the addition of 10 μL (50 μCi) of 1-^14 C-AA. Products were isolated by acidification and extraction, followed by thin layer chromatography analysis as described above. Radioactive areas corresponding to authentic 5-LO (5-HETE) and CO (PgD2) products were quantitated by the Bioscan 2000 Imaging System and the IC50 was calculated as above.

5-LO [3] = biological target: T2, 5-LO; assay: Procedure II: 5-LO activity (5-HETE) in broken RBL-1 cells (homogenate supernatant); assay type: biochemical; conditions: RBL-1 broken cell supernatant; for IC50: read-out: Proc. II 5-LO IC50; for inhibition at 10 µM: 20 min, @ 10 .quadrature.M, read-out: Proc. II 5-LO % inhibition
Method: as §1, §2, §3

[4] = biological target: T3, Sheep seminal vesicle (SSV) cyclooxygenase (Ovis aries, UniProt P05979); assay: Procedure I: inhibition of sheep seminal vesicle (SSV) cyclooxygenase; assay type: biochemical; conditions: for inhibition at 10 µM: 20 min, read-out: Proc. I % inhibition
T3 construct: Sheep seminal vesicle (SSV) cyclooxygenase (95% pure); purchased Biomol (Plymouth Meeting, PA); host or cells: sheep seminal vesicle
T3 sequence (P05979 25-600): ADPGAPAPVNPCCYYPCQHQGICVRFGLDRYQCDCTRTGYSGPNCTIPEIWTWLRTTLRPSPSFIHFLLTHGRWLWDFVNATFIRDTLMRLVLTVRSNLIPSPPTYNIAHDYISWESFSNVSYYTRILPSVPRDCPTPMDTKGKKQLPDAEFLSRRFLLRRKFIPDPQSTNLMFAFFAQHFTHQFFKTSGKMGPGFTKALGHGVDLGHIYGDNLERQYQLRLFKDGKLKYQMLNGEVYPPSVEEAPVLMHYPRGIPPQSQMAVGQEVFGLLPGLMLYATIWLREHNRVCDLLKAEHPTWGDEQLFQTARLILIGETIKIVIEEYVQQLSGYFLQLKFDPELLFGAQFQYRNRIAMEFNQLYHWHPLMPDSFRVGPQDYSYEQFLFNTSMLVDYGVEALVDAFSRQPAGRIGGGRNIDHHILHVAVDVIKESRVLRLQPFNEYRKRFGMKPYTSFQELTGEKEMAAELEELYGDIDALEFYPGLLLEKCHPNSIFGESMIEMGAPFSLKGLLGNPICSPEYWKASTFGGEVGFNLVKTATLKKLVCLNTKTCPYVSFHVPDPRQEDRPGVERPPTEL
Method: Procedure I was used to determine the ability of the compounds to inhibit cyclooxygenase. […] The enzyme was divided into 200 μL aliquots, snap frozen with liquid N2, and stored at -70° C. until immediately prior to use. […] The tubes were mixed on a vortex shaker, preincubated for 5 min at 37° C. prior to the initiation of the reaction. The reaction was started by the addition of [^14 C]-arachidonic acid (1-^14 C-AA, Amersham, Arlington Heights, Ill.) in 10 μL of methanol. Tubes were again vortexed and incubated in a water bath for 20 minutes after which the tubes were removed and the reaction stopped by acidification with the addition of 1 mL 2M formic acid. Lipophilic products were extracted with 3 mL chloroform and concentrated to dryness under N2. Each pellet was reconstituted with 40 μL of chloroform and spotted on a Whatman Silicon thin-layer chromatography plate and developed in a chromatography tank containing A-9 solvent (11:5:2:1 V:V:VV, ethyl acetate:trimethyl-pentane:acetic acid:double distilled-H2 O). Radioactive cyclooxygenase products (prostaglandin D2, prostaglandin E2, etc.) were measured using a Bioscan System 200 Imaging Scanner. Inhibition of enzyme activity was calculated by comparing the areas under the curve produced in the presence or absence of test compound.

CO [5] = biological target: T1, CO; assay: Procedure III: CO (PgD2) in intact RBL-1 cells; assay type: cell-based; conditions: calcium ionophore A 23187, read-out: Proc. III CO IC50
Method: as §3, §4

[6] = @ 10 .quadrature.M, SSV cyclooxygenase

Structure (SMILES) | IC50 (CO [1]) [nM] | IC50 (5-LO [2]) [nM] | IC50 (5-LO [3]) [nM] | inhibition at 10 µM [4, 6] [%] | IC50 (CO [5]) [nM] | inhibition at 10 µM (CO [1]) [%] | inhibition at 10 µM (5-LO [3]) [%] | inhibition at 10 µM [4] [%] | IC50 ([4]; SSV cyclooxygenase, read-out: Proc. I IC50) [nM]
COc1ccc(-n2nc(C#CC(C)N(O)C(N)=O)cc2-c2ccc(C)cc2)cc1 (stereo not drawn) [Cpd 2, N-hydroxy-N-(1-(1-(4-methoxyphenyl)-5-(4-methylphenyl)pyrazol-3-yl)-1-butyn-3-yl)urea] | 9400 | 7700 | 370 | 10 | 1400 | – | – | – | –
CCC(C#Cc1cc(-c2ccc(C)cc2)n(-c2ccc(OC)cc2)n1)N(O)C(N)=O (stereo not drawn) [Cpd 3] | 15900 | 21300 | 70 | 22 | 2100 | – | – | – | –
COc1ccc(-n2nc(C#CC(C(C)C)N(O)C(N)=O)cc2-c2ccc(C)cc2)cc1 (stereo not drawn) [Cpd 4] | 4600 | 8400 | 240 | 29 | 1200 | – | – | – | –
COc1ccc(-n2nc(C#CCN(O)C(N)=O)cc2-c2ccc(Cl)cc2)cc1 [Cpd 5, N-hydroxy-N-(1-(5-(4-chlorophenyl)-1-(4-methoxyphenyl)pyrazol-3-yl)-1-propyn-3-yl)urea] | – | 900 | 80 | 9 | – | 0 | – | – | –
CNC(=O)N(O)C(C)C#Cc1cc(-c2ccc(Cl)cc2)n(-c2ccc(OC)cc2)n1 (stereo not drawn) [Cpd 7] | – | – | – | 5 | – | 0 | 79 | – | –
CCCNC(=O)N(O)C(C)C#Cc1cc(-c2ccc(Cl)cc2)n(-c2ccc(OC)cc2)n1 (stereo not drawn) [Cpd 8] | – | 2800 | – | 14 | – | 32 | 82 | – | –
COc1ccc(-n2nc(C#CC(C)N(O)C(=O)N3CCCCC3)cc2-c2ccc(Cl)cc2)cc1 (stereo not drawn) [Cpd 9] | – | 8000 | – | – | – | – | 76 | 44 | –
COc1ccc(-n2nc(C#CCN(O)C(=O)c3ccccc3)cc2-c2ccc(C)cc2)cc1 [Cpd 15] | – | 8000 | – | – | – | – | 100 | 52 | –
CCC(=O)N(O)C(C)C#Cc1cc(-c2ccc(C)cc2)n(-c2ccc(OC)cc2)n1 (stereo not drawn) [Cpd 19] | – | – | – | 76 | – | 67 | 93 | – | –
COc1ccc(-n2nc(C#CC(C)N(O)C(=O)c3ccco3)cc2-c2ccc(C)cc2)cc1 (stereo not drawn) [Cpd 25, N-(furan-2-carbonyl)-N-(1-(1-(4-methoxyphenyl)-5-(4-methylphenyl)pyrazol-3-yl)-1-butyn-3-yl)hydroxylamine] | – | – | – | – | – | 61 | 70 | – | 1300
CCc1ccc(-c2cc(C#CC(C)N(O)C(=O)CCC(=O)O)nn2-c2ccc(OC)cc2)cc1 (stereo not drawn) [Cpd 33] | – | – | – | 0 | – | 0 | 37 | – | –
CCC(=O)N(O)C(C)C#Cc1cc(-c2ccc(Cl)cc2)n(-c2ccc(OC)cc2)n1 (stereo not drawn) [Cpd 36] | – | – | – | – | – | 100 | 100 | – | –
COc1ccc(-n2nc(C#CC(C)N(O)C(=O)C(C)C)cc2-c2ccc(Cl)cc2)cc1 (stereo not drawn) [Cpd 37] | – | – | – | – | – | 80 | 100 | – | –
CCCCCCCC(=O)N(O)C(C)C#Cc1cc(-c2ccc(Cl)cc2)n(-c2ccc(OC)cc2)n1 (stereo not drawn) [Cpd 38] | – | – | – | 31 | – | 21 | 100 | – | –
COc1ccc(-n2nc(C#CC(C)N(O)C(=O)CCC(=O)O)cc2-c2ccc(Cl)cc2)cc1 (stereo not drawn) [Cpd 39] | – | – | – | 0 | – | 0 | 74 | – | –
COc1ccc(-n2nc(C#CC(C)N(O)C(=O)CNCCCN(C)C)cc2-c2ccc(C)cc2)cc1 (stereo not drawn) [Cpd 42] | – | – | – | 0 | – | 14 | 29 | – | –
CCc1ccc(-c2cc(C#CC(C)N(O)C(=O)CN3CCOCC3)nn2-c2ccc(OC)cc2)cc1 (stereo not drawn) [Cpd 44] | – | – | – | 0 | – | 0 | 93 | – | –
CCc1ccc(-c2cc(C#CC(C)N(O)C(=O)CN3CCN(C)CC3)nn2-c2ccc(OC)cc2)cc1 (stereo not drawn) [Cpd 45, N-(4-methylpiperazin-1-yl)acetyl-N-(1-[5-(4-ethylphenyl)-1-(4-methoxyphenyl)pyrazol-3-yl]-1-butyn-3-yl)hydroxylamine] | – | – | – | 0 | – | 11 | 25 | – | –

From patent US5925769A, “Acetylenic 1,5-diarylpyrazoles as antiinflammatory agents” (Ortho Pharmaceutical, Corp., priority 1998, dated 1999)
